Assay results taken from paper PMC6112376, “Comprehensive Analyses and Prioritization of Tox21 10K Chemicals Affecting Mitochondrial Function by in-Depth Mechanistic Studies” (Environmental Health Perspectives, 2018).
Read-outs that look alike come from different tables or passages of the source.

How the values were obtained:
[1] = system: HepG2 cells; test: Intracellular ATP content (cell viability) assay; assay type: cell-based, human; conditions: 40 h treatment, mean±SD of three experiments
[2] = system: Caenorhabditis elegans (Bristol N2); test: C. elegans larval development and growth assay; conditions: for minimal effective concentration: Caenorhabditis elegans, read-out: LEC EXT: lowest effect concentration for extinction, a measure of nematode size
[3] = system: HepG2 cells; test: cells; conditions: Homo sapiens; for Emax: HepG2, read-out: MMP assays efficacy (%) HepG2
[4] = system: HepG2 cells; test: ROS-Glo hydrogen peroxide (ROS) assay; assay type: cell-based, human; conditions: Homo sapiens, HepG2; 2 h treatment; mean±SD of three experiments; read-out: ROS (HepG2) EC50
[5] = system: hNSC; test: MMP assay in human neural stem cells (hNSC); assay type: cell-based; conditions: Homo sapiens, Neural stem cell; 1 h treatment; fresh re-sourced stocks; mean±SD of three experiments; read-out: hNSC IC50 (MMP)
[6] = system: HeLa cells expressing YFP-Parkin; test: Parkin translocation assay; assay type: cell-based, human; conditions: HeLa cells stably expressing YFP-Parkin; treated for 2 h
[7] = system: Nrf2/ARE (ARE-bla HepG2 cells); test: ARE β-lactamase reporter gene assay; assay type: cell-based, human; conditions: Homo sapiens, HepG2; 16 h incubation; mean±SD of three experiments; read-out: ARE (HepG2) EC50
[8] = system: Caenorhabditis elegans strain PE255; test: In vivo C. elegans ATP status assay; conditions: for minimal effective concentration: Caenorhabditis elegans, read-out: LEC LUM: lowest effect concentration for luminescence, a measure of nematode ATP content
[9] = system: rat primary hepatocytes; test: MMP assay in rat primary hepatocytes; conditions: for IC50: Rattus norvegicus, Hepatocyte; for MMP assays efficacy (%) Rat Hepatocytes: mean ± SD of three experiments
[10] = system: isolated rat liver mitochondria; test: Oxygen consumption, Clark-type oxygen electrode; assay type: biochemical; conditions: for I-ADP, % of control (O2 consumption rate): glutamate/malate driven state 3 respiration; for I-ADP, % of control (O2 consumption rate) / I-sub, % of control (O2 consumption rate) / II-ADP, % of control (O2 consumption rate) / II-sub, % of control (O2 consumption rate): isolated rat liver mitochondria; for I-sub, % of control (O2 consumption rate): glutamate/malate driven state 4 respiration; for II-ADP, % of control (O2 consumption rate): succinate-driven state 3 respiration; for II-sub, % of control (O2 consumption rate): succinate-driven state 4 respiration; for Potential Mechanism: mitochondrial respiration in isolated rat liver mitochondria, Clark type oxygen electrode, over tested concentrations
[11] = system: HepG2 cells; conditions: cited from earlier work; for IC50: read-out: MMP assays IC50 (µM) qHTS-HepG2
[12] = HepG2, read-out: MMP assays IC50 (µM) HepG2
[13] = read-out: MMP assays IC50 (µM) Rat Hepatocytes

SMILES	minimal effective concentration [2]	IC50 [3, 12]	Emax [3]	minimal effective concentration [8]	EXT: mean difference in nematode size relative to plate controls ([2]; 0.5 µM)	EXT: mean difference in nematode size relative to plate controls ([2]; 1 µM)	EXT: mean difference in nematode size relative to plate controls ([2]; 5 µM)	EXT: mean difference in nematode size relative to plate controls ([2]; 10 µM)	EXT: mean difference in nematode size relative to plate controls ([2]; 25 µM)	EXT: mean difference in nematode size relative to plate controls ([2]; 50 µM)	EXT: mean difference in nematode size relative to plate controls ([2]; 75 µM)	EXT: mean difference in nematode size relative to plate controls ([2]; 100 µM)	LUM: mean difference in luminescence (ATP content) relative to plate controls ([8]; 0.5 µM)	LUM: mean difference in luminescence (ATP content) relative to plate controls ([8]; 1 µM)	LUM: mean difference in luminescence (ATP content) relative to plate controls ([8]; 5 µM)	LUM: mean difference in luminescence (ATP content) relative to plate controls ([8]; 10 µM)	LUM: mean difference in luminescence (ATP content) relative to plate controls ([8]; 25 µM)	LUM: mean difference in luminescence (ATP content) relative to plate controls ([8]; 50 µM)	LUM: mean difference in luminescence (ATP content) relative to plate controls ([8]; 75 µM)	LUM: mean difference in luminescence (ATP content) relative to plate controls ([8]; 100 µM)	further results
NNc1nc(-c2ccccc2)cs1 [2-Hydrazino-4-phenylthiazole]	10 µM	10 µM	103%	25 µM																	ATP (HepG2, glucose) IC50 ([1]; 5 mM glucose): Inactive; ATP (HepG2, galactose) IC50 ([1]; 10 mM galactose): Inactive; LEC (lowest effect concentration), larval growth assay ([2]; 48 h exposure): ≤ 10 µM; IC50 ([3]; HepG2, 1 h, read-out: HepG2 IC50 Galactose (MMP)): 48.2 ± 17.5 µM; IC50 ([3]; HepG2, 1 h, read-out: HepG2 IC50 Glucose (MMP)): 37.1 ± 6.33 µM; EC50 [4]: 34.5 ± 28.8 µM; IC50 [5]: 14.2 ± 2.56 µM; Parkin recruitment [6]: Inactive; EC50 [7]: 6.92 ± 1.73 µM; Rat hepatocytes (efficacy) (MMP) ([9]; % of positive control, mean±SD of three experiments): −57.1±16.9%; IC50 ([9]; 1 h, read-out: Rat hepatocytes IC50 (MMP)): 54.7 ± 21.1 µM; IC50 [9, 13]: 21.5 ± 17.6 µM; MMP assays efficacy (%) Rat Hepatocytes [9]: -81±30%; I-ADP, % of control (O2 consumption rate) ([10]; 100 µM): 94 (50.2) % of control; I-sub, % of control (O2 consumption rate) ([10]; 100 µM): 119 (16.0) % of control; II-ADP, % of control (O2 consumption rate) ([10]; 100 µM): 88 (59.2) % of control; II-sub, % of control (O2 consumption rate) ([10]; 100 µM): 99 (21.4) % of control; Potential Mechanism [10]: Inactive; MMP assays efficacy (%) qHTS-HepG2 [11]: -118±14%; IC50 [11]: 2.32 ± 0.79 µM
CC(C)[C@@H]1NC(=O)[C@H](C)OC(=O)[C@@H](C(C)C)NC(=O)[C@@H](C(C)C)OC(=O)[C@H](C(C)C)NC(=O)[C@H](C)OC(=O)[C@@H](C(C)C)NC(=O)[C@@H](C(C)C)OC(=O)[C@H](C(C)C)NC(=O)[C@H](C)OC(=O)[C@@H](C(C)C)NC(=O)[C@@H](C(C)C)OC1=O [Valinomycin]	50 µM			25 µM	0.09961	0.01293	-0.07954	-0.01187	0.0497	0.3415	0.411	0.3807	-0.05222	-0.06335	0.1958	0.3328	1.023	0.6115	0.5181	0.5717	
O=C1CCC(N2C(=O)c3ccccc3C2=O)C(=O)N1 (centres unmarked) [Thalidomide]	50 µM			75 µM	0.09319	-0.00358	0.07925	0.0474	0.0694	0.4966	0.9805	0.9456	0.03143	0.01645	0.01511	0.04635	0.07311	-0.2127	0.4289	0.7958	
Cc1cc(Cc2cc(C)cc(C(C)(C)C)c2O)c(O)c(C(C)(C)C)c1	5 µM	2 µM	97%	50 µM	0.1192	0.1294	0.8511	1.077	1.41	2.096	2.103	2.175	-0.1638	-0.2926	-0.4173	-0.05227	0.3804	0.9583	0.4391	0.9663	IC50 [9, 13]: 3.71 ± 0.47 µM; MMP assays efficacy (%) Rat Hepatocytes [9]: -125±63%; I-ADP, % of control (O2 consumption rate) ([10]; 20 µM): 103 (50.8) % of control; I-sub, % of control (O2 consumption rate) ([10]; 20 µM): 116 (18.6) % of control; II-ADP, % of control (O2 consumption rate) ([10]; 20 µM): 101 (78.4) % of control; II-sub, % of control (O2 consumption rate) ([10]; 20 µM): 103 (31.4) % of control; I-ADP, % of control (O2 consumption rate) ([10]; 100 µM): 100 (28.6) % of control; I-sub, % of control (O2 consumption rate) ([10]; 100 µM): 244 (29.2) % of control; II-ADP, % of control (O2 consumption rate) ([10]; 100 µM): 91 (33.1) % of control; II-sub, % of control (O2 consumption rate) ([10]; 100 µM): 184 (27.2) % of control; Potential Mechanism [10]: Uncoupler; MMP assays efficacy (%) qHTS-HepG2 [11]: -96±2%; IC50 [11]: 1.35 ± 0.26 µM
CCc1cc(Cc2cc(CC)cc(C(C)(C)C)c2O)c(O)c(C(C)(C)C)c1	5 µM	2 µM	90%		0.1174	0.117	0.5074	0.7525	0.8303	1.425	1.246	1.387	-0.0103	-0.09559	-0.6519	-0.6136	-0.3378	-0.154	0.1094	0.04601	IC50 [9, 13]: 5.01 ± 4.35 µM; MMP assays efficacy (%) Rat Hepatocytes [9]: -78±36%; I-ADP, % of control (O2 consumption rate) ([10]; 20 µM): 96 (47.4) % of control; I-sub, % of control (O2 consumption rate) ([10]; 20 µM): 105 (16.9) % of control; II-ADP, % of control (O2 consumption rate) ([10]; 20 µM): 100 (77.8) % of control; II-sub, % of control (O2 consumption rate) ([10]; 20 µM): 97 (29.7) % of control; I-ADP, % of control (O2 consumption rate) ([10]; 100 µM): 121 (34.8) % of control; I-sub, % of control (O2 consumption rate) ([10]; 100 µM): 175 (20.9) % of control; II-ADP, % of control (O2 consumption rate) ([10]; 100 µM): 98 (35.6) % of control; II-sub, % of control (O2 consumption rate) ([10]; 100 µM): 134 (19.8) % of control; Potential Mechanism [10]: Uncoupler; MMP assays efficacy (%) qHTS-HepG2 [11]: -111±18%; IC50 [11]: 1.22 ± 0.73 µM
